Key:
HEK293T cells = experiment: 3-germ layer immunocytochemistry of embryoid bodies (FIG. 29); assay type: cell-based, human; conditions: compared with H1 and iPSCs
From the text: (§1) Pluripotent cells can differentiate into all cell types, so these cells can be a biological resource for regenerative medicine. Somatic cells can acquire the embryonic stem cell-like pluripotency by the introduction of four transcription factors, Oct4, Sox2, Klf4 and c-Myc (Yamanaka factors). Murine ES-like cell lines were established from mouse embryonic fibroblasts (MEFs) and skin fibroblasts by simply expressing these four transcription factor genes encoding Oct4, Sox2, Klf4, and c-Myc (71). After introducing active transcription factors into somatic cells, the somatic cells closely resemble ES cells in gene expression patterns, cell biologic and phenotypic characteristics. Since then, numerous studies have established that these transcription factors mediate reprogramming regardless of developmental origins and epigenetic states of a cell. These transcription factors are non-functional in somatic cells due to gene silencing. […] Using the technology disclosed herein, nuclear reprogramming of somatic cells was induced possibly due to active Oct4, Sox2, Nanog, and other pluripotency genes, reduced DNA methylation, reduced histone methylation, and altered metabolism of certain biochemical factors (such as glutamine, glutamate, and GABA). This leads to the formation of embryoid bodies from single cells and differentiation into the mesoderm, endoderm, and neuronal ectoderm lineages with high efficiency in the differentiation medium. The 3-Germ Layer Immunocytochemistry Kit (ThermoFisher Scientific, USA), which analyzes spontaneously differentiated embryoid bodies derived from pluripotent stem cells for the presence of all 3-germ layers, was used to confirm the reprogramming. The assay detected widely accepted markers characteristic of the three embryonic germ layers: beta-Ill tubulin (TUJ1) for ectoderm, smooth muscle actin (SMA) for mesoderm, and alpha-fetoprotein (AFP) for endoderm. […] The ectoderm which differentiates to form the nervous system (spine, peripheral nerves, neurons, and brain) was not tested with this kit; however, the presence of neurons was confirmed by a different marker. A Human Neural Stem Cell Immunocytochemistry Kit (ThermoFisher Scientific, USA) which enables a convenient image-based analysis of common markers of human neural stem cells such as Nestin was used. […] Together, the disclosed methods result in the presence of all 3-germ layers in the MTX/PTX treated cells and these treated cells can differentiate into all cell types including beta cells.
(§2) A 3-germ layer immunocytochemistry kit (Thermo Fisher Scientific, USA) was used to assess the pluripotency of embryoid bodies derived from MTX and PTX treated cells.

HF57 = experiment: as above; assay type: cell-based, human; conditions: compared with H1 and iPSCs
From the text: as §1, §2

[1] = tested on: human dermal fibroblast (HDF) cells; experiment: Cell proliferation under prolonged MTX/PTX application, with or without HT (FIG. 16); assay type: cell-based; conditions: controlled application, 5% dialyzed-FBS DMEM, 1 μM MTX for 7-days
Description: (§3) The cells were grown in 5% dialyzed-FBS DMEM medium. 293T cells were treated with 500 nM MTX, and HF57 cells and HDF cells were treated with 1 μM MTX for 7-days. Because inhibition of DHFR and TS by folate antagonists (MTX, PTX) results in a deficiency in the cellular pools of thymidylate and purines and thus a decrease in nucleic acid synthesis, sodium hypoxanthine (10 mM) and thymidine (1.6 mM) were added to the medium to overcome the effects of MTX and PTX. […] The cells were harvested for DNA/RNA isolation and analyzed for gene expression and DNA methylation.

[2] = tested on: human fibroblast cells (HF57); experiment: as above; assay type: cell-based; conditions: controlled application, 5% dialyzed-FBS DMEM, 1 μM MTX for 7-days
Description: as §3

[3] = tested on: human embryonic kidney cells (293T); experiment: as above; assay type: cell-based; conditions: for cell proliferation: prolonged, controlled application, 5% dialyzed-FBS DMEM, 500 nM MTX for 7-days
Description: as §3
MTX and PTX are antifolates that inhibit enzymes (particularly thymidylate synthase and dihydrofolate reductase) involved in folate metabolism and purine and pyrimidine synthesis (100-103). Since these compounds are competitive inhibitors of […], these compounds were exogenously applied to the WT (HEK 293T and HF57) cells. As shown in FIGS. 16-17, application of MTX and PTX to the normal growing WT cells produced the phenotypes similar to the FPGS^ko. Several concentrations of MTX ranging from 75 nM to 500 nM were tested. The impact of MTX depended on the cell lines, exposure time, and the supplemental media. A concentration as low as 75 nM achieved similar results when a lower concentration of FBS was used, and the best results for 293T cells were obtained using MTX at a concentration ranging between 200 nM and 500 nM. Further, the pharmacological impacts of folate inhibitors on global DNA methylation were examined. 293T (control) cells were treated with 500 nM MTX and 1 μM PTX for at least 7 days before harvesting the cells and isolating the genomic DNA (gDNA). Equal amount of gDNA (100 ng) was analyzed with 5mC enzyme-linked immunosorbent assay (ELISA) (EpiGentek).

293T cells = experiment: qRT-PCR relative transcript levels of ANKRD1 and ANOS (FIG. 22, 23); assay type: cell-based, human; conditions: vs control cells
Description: To validate microarray results, quantitative 2-step RT-PCR was performed. One microgram of total RNA was reverse transcribed to first-strand cDNA with the Qiagen cDNA Synthesis Kit (Qiagen), and this cDNA was subsequently used as a template for quantitative PCR with gene-specific primers. The ubiquitous β-actin gene served as a control for constitutive gene expression. The quantitative RT-PCR (qRT-PCR) reactions were performed using Power Sybr Green PCR Master Mix (Thermo Fisher Scientific) on a CFX96 Touch Real-Time PCR Detection System (Bio-Rad, Hercules, CA, USA). Relative expression levels (2^−ΔCt) were calculated according to the Livak and Schmittgen method (40). Expression levels of each gene were compared with the expression level of actin.

HF57 cells = experiment: Global DNA methylation, 5mC ELISA (FIG. 18); assay type: cell-based, human; conditions: 7-days; vs untreated cells
Description: Equal amount of DNA (100 ng) was analyzed with 5mC enzyme-linked immunosorbent assay (ELISA) (EpiGentek). […] Error bars represent the standard error for at least three independent experiments and three technical replicates.
Global DNA methylation measurement Global 5-methylcytosine (5-mC) levels were quantified using the MethylFlash Methylated DNA Quantification Kits (Epigentek, Farmingdale, NY, USA). The DNA concentration was determined using the Qubit Assay (Thermo Fisher Scientific) according to the manufacturer's protocol. Briefly, 100 ng of DNA was used for incubation with both capture and detection antibodies using MethylFlash Methylated DNA Quantification Kit (Colorimetric) from Epigentek. Subsequently, measurements of the absorbance of the sample at 450 nm in a microplate spectrophotometer (BioTek Instruments, Winooski, VT, USA) were performed with the percentage of the whole genome 5-mC calculation according to manufacturer's instructions. Genomic methylation levels in study samples were expressed as percentage of 5-mC.

Row | Compound | presence of three germ layers in embryoid bodies (HEK293T cells) | presence of three germ layers in embryoid bodies (HF57) | cell proliferation [1] | cell proliferation [2] | cell proliferation [3] | concentration as low as which achieved similar results ([3]; when a lower concentration of FBS was used) [nM] | relative transcripts level of ANOS (293T cells) | relative transcripts level of Ankyrin repeat domain 1 (ANKRD1) (293T cells) | global DNA methylation (5mC content) (HF57 cells)
1 | CN(Cc1cnc2nc(N)nc(N)c2n1)c1ccc(C(=O)N[C@@H](CCC(=O)O)C(=O)O)cc1 [MTX, methotrexate] | confirmed the presence of all three germ layers | confirmed the presence of all three germ layers | reduced cell proliferation | reduced cell proliferation | reduced cell proliferation | 75 | significantly higher | significantly higher | significant reduction in global DNA methylation
2 | Nc1nc2[nH]cc(CCc3ccc(C(=O)N[C@@H](CCC(=O)O)C(=O)O)cc3)c2c(=O)[nH]1 [PTX, pemetrexed] | confirmed the presence of all three germ layers | confirmed the presence of all three germ layers | reduced cell proliferation | reduced cell proliferation | reduced cell proliferation | – | significantly higher | significantly higher | significant reduction in global DNA methylation

— patent US20250171744A1, “METHODS OF REPROGRAMMING SOMATIC CELLS AND MATERIALS RELATED THERETO” (CITY OF HOPE, priority 2019, published 2025)
